Values joined by “and” are separate entries in the source; they are usually repeats but may differ in a detail not shown here. Equal entries are not always repeated.
Test system: NCI-H196 complex spheroids with HUVEC/MSC, growth % T/C
Test: Anticancer human tumor NCI-H196 cell line growth inhibition [Asc];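 also: spheroids exposed to compound for 7 days before measurement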;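 as to viability, T/C: 100% = DMSO vehicle control wells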
Conditions: for viability, T/C: stronger effect = lower value
Outline: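 Complex spheroids combining tumor cells with HUVEC endothelial cells and human MSCs, at 37 degrees C, 5% CO2; agents tested alone or combined, half-log dilutions from at or near clinical Cmax, or 10 microM if Cmax unknown.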

[1] = curve of first compound, second compound 0.1 µM
[2] = curve of first compound, second compound 0.316 µM
[3] = curve of first compound, second compound 1 µM
[4] = curve of first compound, second compound 3.16 µM
[5] = curve of first compound, second compound 10 µM
[6] = second compound 0.1 µM, first compound 0.0316 µM
[7] = second compound 0.1 µM, first compound 0.1 µM
[8] = second compound 0.1 µM, first compound 0.316 µM
[9] = second compound 0.1 µM, first compound 1 µM
[10] = second compound 0.316 µM, first compound 0.0316 µM
[11] = second compound 0.316 µM, first compound 0.1 µM
[12] = second compound 0.316 µM, first compound 0.316 µM
[13] = second compound 0.316 µM, first compound 1 µM
[14] = second compound 1 µM, first compound 0.0316 µM
[15] = second compound 1 µM, first compound 0.1 µM
[16] = second compound 1 µM, first compound 0.316 µM
[17] = second compound 1 µM, first compound 1 µM
[18] = second compound 3.16 µM, first compound 0.0316 µM
[19] = second compound 3.16 µM, first compound 0.1 µM
[20] = second compound 3.16 µM, first compound 0.316 µM
[21] = second compound 3.16 µM, first compound 1 µM
[22] = second compound 10 µM, first compound 0.0316 µM
[23] = second compound 10 µM, first compound 0.1 µM
[24] = second compound 10 µM, first compound 0.316 µM
[25] = second compound 10 µM, first compound 1 µM

`C#Cc1c(F)ccc2cc(O)cc(-c3ncc4c(N5CC6CCC(C5)N6)nc(OCC56CCCN5CC(F)C6)nc4c3F)c12` (centres undefined) + Cc1c(S(C)(=O)=O)c(-c2cc(F)cc(N3CCN(c4ccc(NS(=O)(=O)c5ccc(NC(CCN6CCC(C(=O)OCCCP(=O)(O)O)CC6)CSc6ccccc6)c(S(=O)(=O)C(F)(F)F)c5)cc4)CC3)c2)c(-c2ccc(Cl)cc2)n1C(C)C was tested, and the IC50 [1] was over 10000 nM, the IC50 [2] was over 10000 nM and the IC50 [3] was over 10000 nM. The IC50 [4] was over 10000 nM, the IC50 [5] was over 10000 nM and the viability, T/C [6] was 92.8%. The viability, T/C [7] was 93%, the viability, T/C [8] was 98.2% and the viability, T/C [9] was 98.1%. The viability, T/C (second compound 0.1 µM, first compound 3.16 µM) was 94.2%, the viability, T/C (second compound 0.1 µM, first compound 10 µM) was 93.5% and the viability, T/C [10] was 98.3%. It also gave a viability, T/C [11] of 93.3%, a viability, T/C [12] of 88.8% and a viability, T/C [13] of 97.8%. The viability, T/C (second compound 0.316 µM, first compound 3.16 µM) was 94.8%, the viability, T/C (second compound 0.316 µM, first compound 10 µM) was 88.1% and the viability, T/C [14] was 88.9%. The viability, T/C [15] was 87.7%, the viability, T/C [16] was 90.8% and the viability, T/C [17] was 89.2%. For the same compound, the viability, T/C (second compound 1 µM, first compound 3.16 µM) was 93.7%, the viability, T/C (second compound 1 µM, first compound 10 µM) was 83.7% and the viability, T/C [18] was 84.4%. The viability, T/C [19] was 86.7%, the viability, T/C [20] was 81.3% and the viability, T/C [21] was 75.5%. For the same compound, the viability, T/C (second compound 3.16 µM, first compound 3.16 µM) was 78.5%, the viability, T/C (second compound 3.16 µM, first compound 10 µM) was 70.1% and the viability, T/C [22] was 71.8%. It also gave a viability, T/C [23] of 77.8%, a viability, T/C [24] of 82.7% and a viability, T/C [25] of 80.4%. For the same compound, the viability, T/C (second compound 10 µM, first compound 3.16 µM) was 71.2% and the viability, T/C (second compound 10 µM, first compound 10 µM) was 58%.
`C#Cc1c(F)ccc2cc(O)cc(-c3ncc4c(N5CC6CCC(C5)N6)nc(OCC56CCCN5CC(F)C6)nc4c3F)c12` (centres undefined) was tested, and the viability, T/C (compound 0.0316 µM) was 94.6% and 101% and 103%, the viability, T/C (compound 0.1 µM) was 93.4% and 95.6% and 109% and the viability, T/C (compound 0.316 µM) was 93.4% and 92.8% and 118%. For the same compound, the viability, T/C (compound 1 µM) was 102% and 100% and 113%, the viability, T/C (compound 3.16 µM) was 101% and 92.6% and 108% and the viability, T/C (compound 10 µM) was 105% and 92.6% and 104%. For the same compound, the IC50 (curve of compound) was over 10000 nM.
With `Cc1nc(N2CCC3(CC2)COC(C)C3N)c(CO)nc1Sc1ccnc(N)c1Cl` (centres undefined) the viability, T/C (compound 0.00949 µM) was 108% and 110% and 98.4%, the viability, T/C (compound 0.03 µM) was 142% and 106% and 101% and the viability, T/C (compound 0.0949 µM) was 106% and 99% and 102%. For the same compound, the viability, T/C (compound 0.3 µM) was 86.8% and 96.3% and 92.5%, the viability, T/C (compound 0.949 µM) was 43% and 63.5% and 67.1% and the viability, T/C (compound 3 µM) was 13.2% and 30.9% and 37.1%. The IC50 (curve of compound) was 777 nM and 1550 nM and 1820 nM.
In the case of `CNC(C)C(=O)NC1CN(S(=O)(=O)c2cccc(S(=O)(=O)N3CCC4CCC(C(=O)NC(c5ccccc5)c5ccccc5)N4C(=O)C(NC(=O)C(C)NC)C3)c2)CCC2CCC(C(=O)NC(c3ccccc3)c3ccccc3)N2C1=O` (centres undefined) + Cc1c(S(C)(=O)=O)c(-c2cc(F)cc(N3CCN(c4ccc(NS(=O)(=O)c5ccc(NC(CCN6CCC(C(=O)OCCCP(=O)(O)O)CC6)CSc6ccccc6)c(S(=O)(=O)C(F)(F)F)c5)cc4)CC3)c2)c(-c2ccc(Cl)cc2)n1C(C)C, the IC50 [1] is reported as under 3.16 nM, the IC50 [2] is reported as under 3.16 nM and the IC50 [3] is reported as under 3.16 nM. For the same compound, the IC50 [4] was under 3.16 nM, the IC50 [5] was under 3.16 nM and the viability, T/C (second compound 0.1 µM, first compound 0.00316 µM) was 34.8%. The viability, T/C (second compound 0.1 µM, first compound 0.01 µM) was 14.2%, the viability, T/C [6] was 3.61% and the viability, T/C [7] was 1.15%. It also gave a viability, T/C [8] of 1.37%, a viability, T/C [9] of 1.37% and a viability, T/C (second compound 0.316 µM, first compound 0.00316 µM) of 34.8%. It also gave a viability, T/C (second compound 0.316 µM, first compound 0.01 µM) of 13.5%, a viability, T/C [10] of 2.75% and a viability, T/C [11] of 2.2%. It also gave a viability, T/C [12] of 0.94%, a viability, T/C [13] of 0.56% and a viability, T/C (second compound 1 µM, first compound 0.00316 µM) of 32.3%. It also gave a viability, T/C (second compound 1 µM, first compound 0.01 µM) of 10.1%, a viability, T/C [14] of 3.17% and a viability, T/C [15] of 2.28%. For the same compound, the viability, T/C [16] was 1.22%, the viability, T/C [17] was 0.43% and the viability, T/C (second compound 3.16 µM, first compound 0.00316 µM) was 31.1%. The viability, T/C (second compound 3.16 µM, first compound 0.01 µM) was 11%, the viability, T/C [18] was 3.34% and the viability, T/C [19] was 0.68%. It also gave a viability, T/C [20] of 0.36%, a viability, T/C [21] of 0.39% and a viability, T/C (second compound 10 µM, first compound 0.00316 µM) of 28.9%. It also gave a viability, T/C (second compound 10 µM, first compound 0.01 µM) of 6.64%, a viability, T/C [22] of 2.27% and a viability, T/C [23] of 0.74%. For the same compound, the viability, T/C [24] was 0.42% and the viability, T/C [25] was 0.45%.

From PubChem BioAssay AID1963439 (Molecular Pharmacology Branch, DTP, NCI, 2024)
